Article PMC4065394 (The FEBS journal, 2014)
Values joined by “and” are separate entries in the source; they are usually repeats but may differ in a detail not shown here. Equal values may be shown once. “Also recorded” adds a separate entry of the source. Read-outs that look alike come from different tables or passages of the source.

What was measured:
Y392F DXP synthase [1] = biological target: T1, Y392F DXP synthase (Escherichia coli, UniProt P77488, Y392F); assay type: biochemical, E. coli; details: for Km: Y392F, coupled assay, 37 °C
R478A DXP synthase [2] = biological target: T2, R478A DXP synthase (Escherichia coli, UniProt P77488, R478A); test: biochemical; assay type: binding, E. coli
Y392F DXP synthase [3] = biological target: T1, Y392F DXP synthase; test: Substrate binding by intrinsic total protein fluorescence; parameters: species or system E. coli
R420A DXP synthase [4] = biological target: T3, R420A DXP synthase (Escherichia coli, UniProt P77488, R420A); test: biochemical; assay type: binding, E. coli
R478A DXP synthase [5] = biological target: T2, R478A DXP synthase; assay type: biochemical, E. coli; details: for Km: R478A, coupled assay, 37 °C
wild type DXP synthase [6] = biological target: T4, wild type DXP synthase (Escherichia coli, UniProt P77488); details: cited from earlier work
wild type DXP synthase [7] = biological target: T4, wild type DXP synthase; details: read-out: Kd^pyruvate (apparent), CD spectroscopy; cited from earlier work
wild type DXP synthase [8] = biological target: T4, wild type DXP synthase; test: Substrate binding by intrinsic total protein fluorescence; parameters: species or system E. coli
Y392F DXP synthase [9] = biological target: T1, Y392F DXP synthase; test: CD titration with pyruvate; assay type: binding, E. coli
wild type DXP synthase [10] = biological target: T4, wild type DXP synthase; test: DX product formation from pyruvate and D-glyceraldehyde; assay type: biochemical, E. coli; details: 30 mM D-glyceraldehyde and 5 mM pyruvate, 8 °C
Y392F DXP synthase [11] = biological target: T1, Y392F DXP synthase; assay type: biochemical, E. coli; details: 6 °C, from pyruvate and D-GAP
wild type DXP synthase [12] = biological target: T4, wild type DXP synthase; details: 6 °C; cited from earlier work
R478A DXP synthase [13] = biological target: T2, R478A DXP synthase; assay type: biochemical, E. coli; details: 6 °C, from pyruvate and D-GAP
Y392F DXP synthase [14] = biological target: T1, Y392F DXP synthase; assay type: biochemical, E. coli; details: CD at 290 nm, 37 °C
R478A DXP synthase [15] = biological target: T2, R478A DXP synthase; assay type: biochemical, E. coli
R420A DXP synthase [16] = biological target: T3, R420A DXP synthase; test: Substrate binding by intrinsic total protein fluorescence; parameters: species or system E. coli; details: D-GAP up to 15 mM
R478A DXP synthase [17] = biological target: T2, R478A DXP synthase; assay type: binding, E. coli; details: D-GAP up to 15 mM
R420A DXP synthase [18] = biological target: T3, R420A DXP synthase; test: Steady-state DXP formation monitored by CD at 290 nm; assay type: biochemical, E. coli; details: 37 °C, D-GAP 0.25 – 2 mM, 1 mM pyruvate
wild type DXP synthase [19] = biological target: T4, wild type DXP synthase; details: 6 °C, cited from earlier work
Y392F DXP synthase [20] = biological target: T1, Y392F DXP synthase; details: − D-GAP, 6 °C, single turnover
wild type DXP synthase [21] = biological target: T4, wild type DXP synthase; details: − D-GAP, 6 °C; cited from earlier work
R420A DXP synthase [22] = biological target: T3, R420A DXP synthase; details: + D-GAP (2 mM in second syringe), 6 °C
R478A DXP synthase [23] = biological target: T2, R478A DXP synthase; details: + D-GAP (2 mM in second syringe), 6 °C
R478A DXP synthase [24] = biological target: T2, R478A DXP synthase; details: − D-GAP, 6 °C, single turnover
Y392F DXP synthase [25] = biological target: T1, Y392F DXP synthase; details: + D-GAP (200 μM in second syringe), 6 °C
R420A DXP synthase [26] = biological target: T3, R420A DXP synthase; details: − D-GAP, 6 °C, single turnover
wild type DXP synthase [27] = biological target: T4, wild type DXP synthase; details: 30 mM D-glyceraldehyde, 8 °C

## CC(=O)C(=O)O [pyruvate]
Y392F DXP synthase [1]; Y392F vs wild type
  increase in Km^pyruvate compared to wild type: 1.5 fold
Y392F DXP synthase [1]; read-out: Km^pyruvate
  Km: 73 ± 4 µM
R478A DXP synthase [2]
  Kd: 80 ± 30 µM
R478A DXP synthase [2]; R478A, CD, 5 °C
  Hill coefficient nH for pyruvate: 1.0 ± 0.2
Y392F DXP synthase [3]
  Kd: 230 ± 60 µM
R420A DXP synthase [4]
  Kd: 37 ± 8 µM
R420A DXP synthase [4]; R420A, CD, 5 °C
  Hill coefficient nH for pyruvate: 1.2 ± 0.3
R478A DXP synthase [5]; read-out: Km^pyruvate
  Km: 54 ± 7 µM
Wild type DXP synthase [6]; read-out: Km^pyruvate, wild type
  Km: 49 ± 8 µM
Wild type DXP synthase [7]
  Kd: 89.4 µM
Wild type DXP synthase [8]
  Kd: 0.23 ± 0.07 mM
Y392F DXP synthase [9]
  Kd: 113 µM

## CC(=O)[C@@H](O)[C@H](O)CO [DX, 1-deoxy-D-xylulose]
Wild type DXP synthase [10]
  overall rate of DX product formation, k4: 1.15 ± 0.7 s⁻¹
  overall rate of DX product formation, k4′: 0.5 ± 0.2 s⁻¹

## CC(=O)[C@@H](O)[C@H](O)COP(=O)(O)O [DXP, 1-deoxy-D-xylulose 5-phosphate]
Y392F DXP synthase [11]
  Formation of DXP, k4 (faster phase): 1.34 ± 0.12 s⁻¹
  Formation of DXP, k4′ (slower phase): 0.34 ± 0.01 s⁻¹
Wild type DXP synthase [12]
  Formation of DXP, k4′ (slower phase): 0.29 ± 0.01 s⁻¹
R478A DXP synthase [13]
  Formation of DXP, k4 (faster phase): 0.78 ± 0.08 s⁻¹
  Formation of DXP, k4′ (slower phase): 0.26 ± 0.02 s⁻¹

## O=C[C@H](O)COP(=O)(O)O [D-GAP, D-glyceraldehyde 3-phosphate]
Y392F DXP synthase [1]; Y392F vs wild type
  decrease in kcat/Km^D-GAP compared to wild type: near eight-fold decrease
Y392F DXP synthase [1]; read-out: Km^D-GAP
  Km: 210 ± 20 µM
R478A DXP synthase [5]; R478A vs wild type
  increase in Km^D-GAP compared to wild type DXP synthase: 70 fold
R478A DXP synthase [5]; read-out: Km^D-GAP
  Km: 1600 ± 300 µM
Wild type DXP synthase [6]; read-out: Km^D-GAP
  Km: 23.5 ± 1.7 µM
Y392F DXP synthase [14]
  Hill coefficient nH for D-GAP: 1.2 ± 0.1
R478A DXP synthase [15]; CD at 290 nm, 37 °C
  Hill coefficient nH for D-GAP: 1.1 ± 0.1
R478A DXP synthase [15]; read-out: Km^D-GAP, CD at 290 nm, 37 °C, D-GAP 0.15 – 2 mM, 1 mM pyruvate
  Km: 530 ± 100 µM
R420A DXP synthase [16]
  fluorescence quenching upon titration of D-GAP: negligible changes in fluorescence; also recorded: quenching of fluorescence was not observed
R478A DXP synthase [17]
  fluorescence quenching upon titration of D-GAP: quenching of fluorescence was not observed; also recorded: negligible changes in fluorescence
Wild type DXP synthase [8]
  Kd: 2 ± 0.5 mM
R420A DXP synthase [18]
  saturation by D-GAP: saturation by D-GAP is not achieved; also recorded: Saturation was not achieved

## Cc1ncc(C[n+]2c(C(C)(O)C(=O)O)sc(CCOP(=O)(O)OP(=O)(O)O)c2C)c(N)n1 (stereo not drawn) [LThDP, C2α-lactylthiamin diphosphate]
Wild type DXP synthase [19]
  D-GAP-promoted LThDP Decarboxylation, k2: k2 = 42.0 ± 1.0 s^−1
Wild type DXP synthase [19]; + D-GAP
  Formation of LThDP (re-synthesis), k1: k1 = 0.68 ± 0.01 s^−1
Y392F DXP synthase [20]
  Formation of LThDP, k1 (faster phase): 1.06 ± 0.03 s⁻¹
  Formation of LThDP, k1′ (slower phase): 0.3 ± 0.01 s⁻¹
Wild type DXP synthase [21]
  Formation of LThDP, k1 (faster phase): 1.39 ± 0.05 s⁻¹
  Formation of LThDP, k1′ (slower phase): 0.16 ± 0.02 s⁻¹
  LThDP Decarboxylation, k2: k2 = 0.07 ± 0.006 s^−1
R420A DXP synthase [22]
  Formation of LThDP (re-synthesis), k1: k1 = 0.67 ± 0.003 s^−1
R478A DXP synthase [23]
  D-GAP-promoted LThDP Decarboxylation, k2: k2 = 36.5 ± 1.1 s^−1
  Formation of LThDP (re-synthesis), k1: k1 = 0.84 ± 0.004 s^−1
R478A DXP synthase [24]
  Formation of LThDP, k1 (faster phase): 0.85 ± 0.03 s⁻¹
  Formation of LThDP, k1′ (slower phase): 0.29 ± 0.02 s⁻¹
Y392F DXP synthase [25]
  Formation of LThDP (re-synthesis), k1: k1 = 0.82 ± 0.01 s^−1
R420A DXP synthase [26]
  Formation of LThDP, k1 (faster phase): 1.24 ± 0.01 s⁻¹
  Formation of LThDP, k1′ (slower phase): 0.28 ± 0.002 s⁻¹

## O=C[C@H](O)CO [D-glyceraldehyde]
Wild type DXP synthase [27]
  rate of LThDP decarboxylation promoted with D-glyceraldehyde, k2: 21.5 ± 0.2 s⁻¹ and 21 s⁻¹
